Data published in patent US20050153870A1, “Medicinal composition for diagnosis, prevention, or therapy of multiple risk factor syndrome” (priority 2002, published 2005).
Marks after values point to notes of the source that are not given here.

Key:
Mouse = experiment: Appetite suppressing effect; format: in vivo; details: mouse fasted 48 hours; 1 to 2 mg/kg perorally one hour before feeding; feed given for 2 hours
db/db mice = experiment: Blood sugar decreasing effect in db/db mice (Example 7); format: in vivo, mouse; details: for Body weight / Blood sugar level: in feed for a week (MAC 0.05%, AS-103 0.05%, AR-610 0.1%, AF 0.4%, AC 0.05%); for Body weight: control group 44.6 ± 0.9; for Blood sugar level: control group 549.8 ± 21.8; for Blood sugar level, change vs control group / Body weight, change vs control group: in feed for a week, contents as in table
Protocol: (§1) Powered feed to which ascofuranone (AF) and ascochlorin (AC) as well as its derivatives, 4-0-methylascochlorin (MAC), 4-0-carboxymethylascochlorin (AS-6), and 4-0-nicotinoyl ascochlorin (AS-103) were added to feed at the proportions shown in the table, and the feed were given to db/db mice for a week and then analyzed for blood sugar decreasing effect (8 mice/group).

[1] = test system: Mouse, rat, beagle dog, quail, DOCA hypertension rat; experiment: Serum cholesterol decreasing effect; format: in vivo; details: incl. rat and quail raised with hyperfat feed
Protocol: The quails are raised by giving a feed containing 2% cholesterol for 9 months to develop hypercholesteremia, and, in the case of the rats, mineral corticoid and saline are administered to allow them to develop heart and blood vessel disease and then hypercholesteremia.

Anesthetized rat = experiment: Blood pressure decreasing effect, acute test; format: in vivo; details: 2 mg/kg perorally
Protocol: Compounds of this series has an antihypertensive effect in various types of test animal models. The antihypertensive effect is confirmed not only in an acute test, in which arterial blood pressure of anesthetized rats and dogs is measured, but also in a chronic test using DOCA hypertensive rats, which are prepared by excising one of the kidneys and administering mineral corticoid and saline thereto, naturally-occurring hypertensive rats, which is an animal morbid model of essential hypertensive disease, and ob/ob mice, which are hereditary diabetic obese […].

Lean = experiment: Body weight and blood sugar in Lean mice (Example 7); format: in vivo, mouse; details: for Body weight / Blood sugar level: in feed for a week (MAC 0.05%, AS-103 0.05%, AR-610 0.1%, AF 0.4%, AC 0.05%); for Body weight: control group 20.9 ± 0.8; for Blood sugar level: control group 211.2 ± 7.8; for Blood sugar level, change vs control group / Body weight, change vs control group: in feed for a week, contents as in table
Protocol: [The procedure below names another variant; the source lists this variant under the same test.] as §1

Rat = experiment: Glucogenesis in the liver; format: in vivo; details: perorally
Description: Compounds of this series suppresses hepatic glucogenesis which is induced by administration of dexamethazon to a rat. For this reason, it antagonizes the action of glucocorticoid in vivo. The compound further has an effect of suppressing steroid diabetes characterized by polydipsia and polyurea and urine sugar excretion induced by administering cortisol to a rat. […] These facts strongly support that compounds of this series is useful in preventing and/or treating visceral fat syndrome.

[2] = test system: SHR rat of high-incidence fat deposition group; experiment: Fat deposition on the mesenteric artery; format: in vivo; details: perorally

Compound	amount of feed (appetite suppressing effect) (Mouse)	Body weight (db/db mice) [g]	Blood sugar level (db/db mice) [mg/dL]	Blood sugar level, change vs control group (db/db mice) [%**]	Body weight, change vs control group (db/db mice)	serum cholesterol decreasing effect [1]	decrease of average blood pressure of the carotid artery (Anesthetized rat)	Body weight (Lean) [g]	Blood sugar level (Lean) [mg/dL]	Blood sugar level, change vs control group (Lean)	Body weight, change vs control group (Lean)	glucogenesis performed in the liver (Rat)	fat deposition in a ring form on the mesenteric artery [2]
CC(/C=C/[C@@]1(C)[C@H](C)CCC(=O)[C@@H]1C)=C\Cc1c(O)c(Cl)c(C)c(C=O)c1O [AC, ascochlorin]	feed is suppressed in a dose dependent manner.	38.9 ± 1.8	262.1 ± 11.8	−52.3	−12.8%**	carboxymethylascochlorin, and ascofuranone exhibits an effect of decreasing serum	decreases by 20 to 30 mmHg.	16.1 ± 0.3	184.8 ± 10.9	−12.5%**	−23.0%**	performed in the liver is suppressed.	
C/C(=C\Cc1c(O)c(Cl)c(C)c(C=O)c1O)CC/C=C(\C)[C@@H]1CC(=O)C(C)(C)O1 [AF, ascofuranone]		44.8 ± 1.4	385.5 ± 40.9	−29.9	ns	carboxymethylascochlorin, and ascofuranone exhibits an effect of decreasing serum		21.8 ± 0.4	161.1 ± 8.3	−23.7%**	ns		mesenteric artery, disappearance of fat deposition is accelerated.
CC(/C=C/C1(C)C(C)CCC(=O)C1C)=C\Cc1c(O)c(C=O)c(C)c(Cl)c1OC(=O)c1cccnc1 (stereo not drawn) [AS-103, 4-0-nicotinoyl ascochlorin]		42.0 ± 1.9	331.3 ± 45.2	−39.7	ns			18.4 ± 0.3	181.8 ± 7.6	−13.9%*	−12.0%**		
